# Assay: Radical scavenging activity (DPPH method)
# Conditions: positive control
# Procedure: Residual phenolic in growth media ([…]) were recovered as follows: samples of the growth media were taken at different time points along L. johnsonii N6.2 growth kinetics. The supernatant was recovered by centrifugation (4000 g for 30 min at 4° C.) and saved as aliquots at -20° C. until processing. Soluble phenolic compounds were recovered by solid-phase extraction using […] column (ThermoScientific, WI, USA) as described by Correa-Betanz et al. (2015). The total scavenging activity of the culture media was assessed by using the DPPH method described by Dong et al. (2017). The samples ([…] or its polyphenol enriched fractions) were diluted (1⁄2 and 1/10) in methanol. […] The quenching ability of L-ascorbic acid was used as a positive control. The absorbance was measured at 515 nm using a Sinergy HT microplate reader (Biotek, Winooski, Vt., USA). The scavenging activity (SA) was estimated by the following formula: % SA=[(Abscontrol-blank-Abssample-blank)/Abscontrol-blank]×100. Total radical scavenging activity (% SA) is expressed in percent of quenching activity per μg of gallic acid equivalents.
smiles,measurement,value
O=C1O[C@H]([C@@H](O)CO)C(O)=C1O [L-ascorbic acid],DPPH scavenging activity (% SA),20.2±0.85 % SA

# Reference: patent publication US11602553B2, “Composition of lactobacillus and berry extract” (UNIVERSITY OF FLORIDA RESEARCH FOUNDATION, INCORPORATED, priority 2018, dated 2023)
